Laboratory results: PubChem BioAssay AID977606 (Broad Institute, 2014)

Tested on: INS-1E Gaussia luciferase insulin secretion, no glucose, luminescence
Experiment: glucose-independent GLuc insulin release activation – cell-based, INS-1E, Gaussia luciferase, luminescence, cherry-pick, counter-screen for glucose-dependent insulin secretion activators, dose response (AID 977606)

Row | SMILES | AC40 [µM]
1 | Cc1cccc(C(C)C)c1NC(=O)COC(=O)c1cccc(S(=O)(=O)N2CCc3ccccc3C2)c1 | 6.65
2 | CNc1nc(-c2ccccc2)[n+](-c2ccc(C)cc2)s1 | 0.858
3 | Cc1cc(Nc2ccc(Cl)cc2)nc(NCc2ccccc2)n1 | 6.67
4 | Cc1cc(OCC(O)CNC(C)c2ccccc2)ccc1C(C)C (centres undefined) | 9.73
5 | COc1ccc(S(=O)(=O)N2CCc3ccccc32)cc1C(=O)Nc1ccc(C(N)=O)cc1 | 6.44
6 | CCC(C)c1ccccc1OCCCN(C)Cc1ccccc1 (centres undefined) | 9.93
7 | CCOc1cc(N2CCOCC2)c(OCC)cc1NC(=O)COC(=O)c1cc2ccccc2cc1O | 4.74
8 | CCCCc1c(-c2ccccc2OC)ncn1C(C)c1ccc(Cl)cc1 (centres undefined) | 7.72
9 | CCOc1ccc(Nc2oc(-c3ccc(Cl)cc3)nc2C#N)cc1 | 5.43
10 | C/C=C/c1ccc(C2[C@H]3CNC[C@@H]2N3Cc2cc(-c3ccccc3)on2)cc1 (some centres undefined) | 6.73
11 | CCCCc1c(-c2cccc(OC)c2)ncn1CCc1ccccc1OC | 7.6
12 | Cc1cc(NC(=O)c2cc(-c3cccc(Cl)c3)on2)no1 | 20.7
13 | CN(Cc1c(C(=O)N/N=C/c2ccccc2O)nnn1-c1nonc1N)C1CCCCC1 | 5.83
14 | COc1ccc(/C=N/Nc2nc(-c3ccc(Cl)cc3)cc(C(F)(F)F)n2)c(OC)c1 | 12.2
